Biological target: human RORγt ligand binding domain (RORγt LBD) (Homo sapiens (Human), UniProt P51449)
Assay: RORγt ThermoFluor® assay (thermal shift binding)
Conditions: read-out: ThermoFluor® Assay, Kd
Outline: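 Binding was inferred from thermal stabilisation (ΔTm) of the E. coli-expressed RORγt LBD (0.065 mg/mL), monitored by 1,8-ANS (60 μM) emission at 500 nm during a 1 °C/min ramp. Buffer was Hepes 100 mM pH 7.0 with NaCl, GSH and Tween-20.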

Chain of human RORγt ligand binding domain (RORγt LBD) (P51449 other isoform, or with tags, fused parts or gaps): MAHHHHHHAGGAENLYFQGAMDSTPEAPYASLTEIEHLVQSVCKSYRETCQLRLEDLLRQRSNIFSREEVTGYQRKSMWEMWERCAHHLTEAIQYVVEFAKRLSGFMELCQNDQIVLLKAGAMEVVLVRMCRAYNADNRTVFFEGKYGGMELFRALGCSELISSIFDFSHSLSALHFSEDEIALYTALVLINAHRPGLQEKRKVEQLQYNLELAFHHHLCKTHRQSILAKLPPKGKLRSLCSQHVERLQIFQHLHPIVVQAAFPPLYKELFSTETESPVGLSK

Row | Structure (SMILES) | Kd [nM]
1 | C[C@H](Nc1cc(C(F)(F)F)c(-c2sc(C(=O)NCC(C)(C)O)nc2C(=O)N2CCC[C@@H]2C)cn1)C1CC1 [Example 40, 5-(6-(((S)-1-Cyclopropylethyl)amino)-4-(trifluoromethyl)pyridin-3-yl)-N-(2-hydroxy-2-methylpropyl)-4-((S)-2-methylpyrrolidine-1-carbonyl)thiazole-2-carboxamide] | 2.8
2 | C[C@H]1CCCCN1C(=O)c1nc(C(=O)NCC(C)(C)O)sc1-c1cnc(NCC(C)(C)C)cc1C(F)(F)F [Example 86, (S)—N-(2-Hydroxy-2-methylpropyl)-4-(2-methylpiperidine-1-carbonyl)-5-(6-(neopentylamino)-4-(trifluoromethyl)pyridin-3-yl)thiazole-2-carboxamide] | 0.17
3 | C[C@H]1CCCN1C(=O)c1nc(C(=O)NCC(C)(C)O)sc1-c1cnc(NC2CCCC2)cc1C(F)(F)F [Example 38, (S)-5-(6-(Cyclopentylamino)-4-(trifluoromethyl)pyridin-3-yl)-N-(2-hydroxy-2-methylpropyl)-4-(2-methylpyrrolidine-1-carbonyl)thiazole-2-carboxamide] | 1.8
4 | C[C@H](Nc1cc(C(F)(F)F)c(-c2sc(C(=O)NCC(C)(C)O)nc2C(=O)N2C3CCC2CC3)cn1)C1CC1 [Example 51, 4-((1s,4s)-7-Azabicyclo[2.2.1]heptane-7-carbonyl)-5-(6-(((S)-1-cyclopropylethyl)amino)-4-(trifluoromethyl)pyridin-3-yl)-N-(2-hydroxy-2-methylpropyl)thiazole-2-carboxamide] | 3.2
5 | CC(C)(O)CNC(=O)c1nc(C(=O)N2C3CCC2CC3)c(-c2cnc(NC3(C)CCC3)cc2C(F)F)s1 [Example 169, 4-((1s,4s)-7-Azabicyclo[2.2[1]heptane-7-carbonyl)-5-(4-(difluoromethyl)-6-((1-methylcyclobutyl)amino)pyridine-3-yl)-N-(2-hydroxy-2-methylpropyl))thiazole-2-carboxamide] | 2.7
6 | CC(C)(C)CNc1cc(C(F)F)c(-c2sc(C(=O)NCC(C)(C)O)nc2C(=O)N2C3CCC2CC3)cn1 [Example 116, 4-((1s,4s)-7-Azabicyclo[2.2.1]heptane-7-carbonyl)-5-(4-(difluoromethyl)-6-(neopentylamino)pyridin-3-yl)-N-(2-hydroxy-2-methylpropyl)thiazole-2-carboxamide] | 3.6
7 | C[C@H]1CCCN1C(=O)c1nc(C(=O)NCC(C)(C)O)sc1-c1cnc(NC(C)(C)C)cc1C(F)(F)F [Example 52, (S)-5-(6-(tert-Butylamino)-4-(trifluoromethyl)pyridin-3-yl)-N-(2-hydroxy-2-methylpropyl)-4-(2-methylpyrrolidine-1-carbonyl)thiazole-2-carboxamide] | 1.2
8 | C[C@H]1CCCN1C(=O)c1nc(C(=O)NCC(C)(C)O)sc1-c1cnc(NCC(C)(C)C)cc1C(F)(F)F [Example 87, (S)—N-(2-Hydroxy-2-methylpropyl)-4-(2-methylpyrrolidine-1-carbonyl)-5-(6-(neopentylamino)-4-(trifluoromethyl)pyridin-3-yl)thiazole-2-carboxamide] | 1.3
9 | C[C@H](Nc1cc(C(F)F)c(-c2sc(C(=O)NCC(C)(C)O)nc2C(=O)N2CCCC[C@@H]2C)cn1)C1CC1 [Example 37, 5-(6-(((S)-1-Cyclopropylethyl)amino)-4-(difluoromethyl)pyridin-3-yl)-N-(2-hydroxy-2-methylpropyl)-4-((S)-2-methylpiperidine-1-carbonyl)thiazole-2-carboxamide] | 0.65
10 | C[C@H](Nc1cc(C(F)(F)F)c(-c2sc(C(=O)NCC(C)(C)O)nc2C(=O)N2CCC[C@@H]2C)cn1)C(F)(F)F [Example 78, N-(2-Hydroxy-2-methylpropyl)-4-((S)-2-methylpyrrolidine-1-carbonyl)-5-(4-(trifluoromethyl)-6-(((S)-1,1,1-trifluoropropan-2-yl)amino)pyridin-3-yl)thiazole-2-carboxamide] | 3.2
11 | CC(C)(O)CNC(=O)c1nc(C(=O)N2C3CCC2CC3)c(-c2cnc(NCC(C)(C)C(F)(F)F)cc2C(F)(F)F)s1 [Example 122, 4-((1s,4s)-7-Azabicyclo[2.2.1]heptane-7-carbonyl)-N-(2-hydroxy-2-methylpropyl)-5-(6-((3,3,3-trifluoro-2,2-dimethylpropyl)amino)-4-(trifluoromethyl)pyridin-3-yl)thiazole-2-carboxamide] | 1.7
12 | C[C@H]1CCCCN1C(=O)c1nc(C(=O)NCC(C)(C)O)sc1-c1cnc(NC2CCCC2)cc1C(F)(F)F [Example 27, (S)-5-(6-(Cyclopentylamino)-4-(trifluoromethyl)pyridin-3-yl)-N-(2-hydroxy-2-methylpropyl)-4-(2-methylpiperidine-1-carbonyl)thiazole-2-carboxamide] | 0.52
13 | CC[C@H](Nc1cc(C(F)F)c(-c2sc(C(=O)NCC(C)(C)O)nc2C(=O)N2CC(F)(F)C[C@@H]2C)cn1)C(F)(F)F [Example 90, 4-((S)-4,4-Difluoro-2-methylpyrrolidine-1-carbonyl)-5-(4-(difluoromethyl)-6-(((S)-1,1,1-trifluorobutan-2-yl)amino)pyridin-3-yl)-N-(2-hydroxy-2-methylpropyl)thiazole-2-carboxamide] | 1.4
14 | CC[C@H](Nc1cc(C(F)(F)F)c(-c2sc(C(=O)NCC(C)(C)O)nc2C(=O)N2CCC[C@@H]2C)cn1)C(F)(F)F [Example 111, N-(2-Hydroxy-2-methylpropyl)-4-((S)-2-methylpyrrolidine-1-carbonyl)-5-(6-(((S)-1,1,1-trifluorobutan-2-yl)amino)-4-(trifluoromethyl)pyridin-3-yl)thiazole-2-carboxamide] | 1.8
15 | CC(C)(O)CNC(=O)c1nc(C(=O)N2C3CCC2CC3)c(-c2cnc(NC3(C)CCC3)cc2C(F)(F)F)s1 [Example 140, 4-((1s,4s)-7-Azabicyclo[2.2.1]heptane-7-carbonyl)-N-(2-hydroxy-2-methylpropyl)-5-(6-((1-methylcyclobutyl)amino)-4-(trifluoromethyl)pyridin-3-yl)thiazole-2-carboxamide] | 1.7

Second part, the molecule after the results:

Row | Kd [nM] | Structure (SMILES)
16 | 1.9 | C[C@H]1CC(F)(F)CN1C(=O)c1nc(C(=O)NCC(C)(C)O)sc1-c1cnc(NCC(C)(C)C)cc1C(F)F [Example 115, (S)-4-(4,4-Difluoro-2-methylpyrrolidine-1-carbonyl)-5-(4-(difluoromethyl)-6-(neopentylamino)pyridin-3-yl)-N-(2-hydroxy-2-methylpropyl)thiazole-2-carboxamide]
17 | 1.1 | C[C@H](NC(=O)c1nc(C(=O)N2CCC[C@@H]2C)c(-c2cnc(NC(C)(C)C)cc2C(F)(F)F)s1)C(C)(C)O [Example 336, 5-[6-(tert-Butylamino)-4-(trifluoromethyl)-3-pyridyl]-N-[(1S)-2-hydroxy-1,2-dimethyl-propyl]-4-[(2S)-2-methylpyrrolidine-1-carbonyl]thiazole-2-carboxamide]
18 | 5.4 | C[C@H](NC(=O)c1nc(C(=O)N2CCC[C@@H]2C)c(-c2cnc(N[C@@H](C)C(F)(F)F)cc2C(F)F)s1)C(C)(C)O [Example 199, 5-(4-(Difluoromethyl)-6-(((S)-1,1,1-trifluoropropan-2-yl)amino)pyridine-3-yl)-N—((S)-3-hydroxy-3-methylburan-2-yl)-4-((S)-2-methylpyrrolidine-1-carbonyl)thiazole-2-carboxamide]
19 | 2.6 | CC[C@H](Nc1cc(C(F)(F)F)c(-c2sc(C(=O)NCC(C)(C)O)nc2C(=O)N2CCC[C@@H]2C)cn1)C1CC1 (relative stereo) [Example 128, 5-(6-(((S*)-1-Cyclopropylpropyl)amino)-4-(trifluoromethyl)pyridin-3-yl)-N-(2-hydroxy-2-methylpropyl)-4-((S)-2-methylpyrrolidine-1-carbonyl)thiazole-2-carboxamide]
20 | 1.5 | C[C@H](Nc1cc(C(F)F)c(-c2sc(C(=O)NCC(C)(C)O)nc2C(=O)N2CCCC[C@@H]2C)cn1)C(F)(F)F [Example 144]
21 | 1.4 | C[C@H](Nc1cc(C(F)(F)F)c(-c2sc(C(=O)NCC(C)(C)O)nc2C(=O)N2CC(F)(F)C[C@@H]2C)cn1)C1CC1 [Example 142, 5-(6-(((S)-1-Cyclopropylethyl)amino)-4-(trifluormethyl)pyridin-3-yl)-4-((S)-4,4-difluoro-2-methylpyrrolidine-1-carbonyl)-N-(2-hydroxy-2-methylpropyl)thiazole-2-carboxamide]
22 | 0.52 | C[C@H]1CC(F)(F)CN1C(=O)c1nc(C(=O)NCC(C)(C)O)sc1-c1cnc(NC2(C(F)(F)F)CCC2)cc1C(F)F [Example 124, (S)-4-(4,4-Difluoro-2-methylpyrrolidine-1-carbonyl)-5-(4-(difluoromethyl)-6-((1-(trifluoromethyl)cyclobutyl)amino)pyridin-3-yl)-N-(2-hydroxy-2-methylpropyl)thiazole-2-carboxamide]
23 | 1.7 | C[C@H](NC(=O)c1nc(C(=O)N2CC(F)(F)C[C@@H]2C)c(-c2cnc(N[C@@H](C)C(F)(F)F)cc2C(F)F)s1)C(C)(C)O [Example 197]
24 | 7.3 | C[C@H]1CCCN1C(=O)c1nc(C(=O)NC[C@@H](O)C(C)(C)O)sc1-c1cnc(NC(C)(C)C)cc1C(F)(F)F (single isomer, unassigned) [Example 243, 5-(6-(tert-Butylamino)-4-(trifluoromethyl)pyridin-3-yl)-N—((R*)-2,3-dihydroxy-3-methylbutyl)-4-((S)-2-methylpyrrolidine-1-carbonyl)thiazole-2-carboxamide]
25 | 4.9 | C[C@H]1CCCN1C(=O)c1nc(C(=O)NCc2n[nH]c(=O)o2)sc1-c1cnc(NC(C)(C)C)cc1C(F)(F)F [Example 305, (S)-5-(6-(tert-Butylamino)-4-(trifluoromethyl)pyridin-3-yl)-4-(2-methylpyrrolidine-1-carbonyl)-N-((5-oxo-4,5-dihydro-1,3,4-oxadiazol-2-yl)methyl)thiazole-2-carboxamide]
26 | 0.68 | C[C@H]1CC(F)(F)CN1C(=O)c1nc(C(=O)NCC(C)(C)O)sc1-c1cnc(NC2(C)CCC2)cc1C(F)(F)F [Example 141, (S)-4-(4,4-Difluoro-2-methylpyrrolidine-1-carbonyl)-N-(2-hydroxy-2-methylpropyl)-5-(6-((1-methylcyclobutyl)amino)-4-(trifluoromethyl)pyridin-3-yl)thiazole-2-carboxamide]
